The source of these data is patent US8653087B2, “Pyrido [5, 4-D] pyrimidines as cell proliferation inhibitors” (Boehringer Ingelheim International GmbH, priority 2008, dated 2014).

For the assay, the target named is B-Raf (V600E)-kinase (Homo sapiens (Human), UniProt P15056, V600E). Put plainly: Kinase test B-RAF (V600E). Particulars: B-RAF (V600E) kinase test, 250 μM ATP. Type of assay: biochemical. The gist of the method: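 B-Raf (V600E) (0.5 ng) preincubated with compound 24 h at RT (5% DMSO), then reacted 60 min at RT with 250 μM ATP and biotinylated MEK1 as substrate. Phospho-MEK (Ser217/221) captured on streptavidin and detected by europium time-resolved fluorescence; IC50 from dose-response curves.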
Chain of B-Raf (V600E)-kinase (P15056 whole entry V600E): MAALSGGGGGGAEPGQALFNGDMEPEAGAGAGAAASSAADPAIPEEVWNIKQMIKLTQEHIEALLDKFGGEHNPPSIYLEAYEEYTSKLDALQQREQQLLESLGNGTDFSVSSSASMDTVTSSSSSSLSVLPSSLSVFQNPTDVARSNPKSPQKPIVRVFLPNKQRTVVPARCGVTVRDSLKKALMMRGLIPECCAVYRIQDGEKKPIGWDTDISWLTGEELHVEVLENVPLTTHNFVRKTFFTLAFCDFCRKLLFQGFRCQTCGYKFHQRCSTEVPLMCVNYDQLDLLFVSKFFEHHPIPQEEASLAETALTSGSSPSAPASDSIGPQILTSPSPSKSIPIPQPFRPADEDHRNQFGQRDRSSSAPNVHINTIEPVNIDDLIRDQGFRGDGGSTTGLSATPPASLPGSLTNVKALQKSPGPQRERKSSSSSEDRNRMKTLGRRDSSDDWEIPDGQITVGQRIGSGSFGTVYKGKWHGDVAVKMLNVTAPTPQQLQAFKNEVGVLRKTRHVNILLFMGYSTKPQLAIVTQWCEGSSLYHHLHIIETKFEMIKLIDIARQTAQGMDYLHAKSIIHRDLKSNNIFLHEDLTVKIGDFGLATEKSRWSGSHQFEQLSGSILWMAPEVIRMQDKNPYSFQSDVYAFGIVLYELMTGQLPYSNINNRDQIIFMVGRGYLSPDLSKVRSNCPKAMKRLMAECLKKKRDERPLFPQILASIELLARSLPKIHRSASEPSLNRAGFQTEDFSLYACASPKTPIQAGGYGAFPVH

The term IC50 denotes the concentration needed to halve the response being measured. A lower IC50 goes with greater potency. `Cc1ccc(C(=O)Nc2cccc(OC(F)(F)F)c2)cc1Nc1ncnc2cnc(N3CCOCC3)nc12` [III-410] registered an IC50 of 1 nM.
The figure for `Cc1ccc(C(=O)Nc2cc(C(C)(C)C)n[nH]2)cc1Nc1ncnc2c(N)nc(N3CCN(CC4CCN(C)CC4)CC3)nc12` [I-13] is 4 nM; for `COc1ccc(C(=O)Nc2ccc(OC)c(C(F)(F)F)c2)cc1Nc1ncnc2cnc(N3CCCC3)nc12` [III-26] it is 24 nM; for `COc1ccc(NC(=O)c2ccc(C)c(N(C)c3ncnc4cnc(NC5CCOC5)nc34)c2)cc1C(F)(F)F` (centres unmarked) [III-585] it is 27 nM.
On to `COc1ccc(NC(=O)c2ccc(F)c(Nc3ncnc4cnc(N5CCOCC5)nc34)c2)cc1C(F)(F)F` [III-37], for which the IC50 turned out to be 4 nM.
The figure for `Cc1ccc(C(=O)Nc2cc(C(C)(C)C)on2)cc1Nc1ncnc2cnc(NCC3CCOC3)nc12` (centres unmarked) [III-359] is 2 nM; for `CC(C)(C)c1cc(NC(=O)c2ccc(F)c(Nc3ncnc4cnc(N5CCCC5)nc34)c2)no1` [III-90] it is 5 nM; for `Cc1ccc(C(=O)Nc2cc(C(C)(C)C)on2)cc1Nc1ncnc2cnc(N3CCC4(CCN(C)C4)C3)nc12` (centres unmarked) [III-603] it is 1 nM.
The result for `Cc1ccc(C(=O)Nc2ccc(C#N)c(C(F)(F)F)c2)cc1Nc1ncnc2cnc(N3CCCN(C)CC3)nc12` [III-284] reads 3 nM; that for `COc1ccc(NC(=O)c2ccc(F)c(Nc3ncnc4cnc(N(C)CCN5CCCC5)nc34)c2)cc1C(F)(F)F` [III-33], 1 nM; that for `Cc1ccc(C(=O)Nc2cc(C(C)(C)C)on2)cc1Nc1ncnc2cnc(NCC3CCCCO3)nc12` (centres unmarked) [III-361], 2 nM.
With `Cc1ccc(C(=O)Nc2cc(C(C)(C)C)n[nH]2)cc1Nc1ncnc2c(N)nc(N3CCN(C4CC4)CC3)nc12` [I-42], the IC50 turned out to be 9 nM.
The figure for `CC(C)(C)c1cc(NC(=O)c2ccc(F)c(Nc3ncnc4cnc(N5CCOCC5)nc34)c2)no1` [III-89] is 4 nM; for `Cc1ccc(C(=O)NCC2CCOC2)cc1Nc1ncnc2cnc(N3CCN(C)CC3)nc12` (centres unmarked) [III-187] it is > 2000 nM; for `COc1ccc(C(C)(C)C)cc1NC(=O)c1ccc(C)c(Nc2ncnc3c(N)nc(N4CCN(C)CC4)nc23)c1` [I-53] it is 21 nM.
The result for `Cc1ccc(C(=O)Nc2cc(C(C)(C)C)n[nH]2)cc1Nc1ncnc2cnc(NC3CCOC3)nc12` (centres unmarked) [III-353] reads < 1 nM; that for `COc1c(CNC(C)C)cc(C(F)(F)F)cc1NC(=O)c1ccc(C)c(Nc2ncnc3cnc(N4CCOCC4)nc23)c1` [III-540], 5 nM.
The figure for `COc1ccc(C(F)(F)F)cc1NC(=O)c1ccc(C)c(Nc2ncnc3cnc(N4CCCC4)nc23)c1` [III-268] is 120 nM; for `Cc1ccc(C(=O)Nc2ccccc2)cc1Nc1ncnc2cnc(N3CCCCC3)nc12` [III-253] it is 269 nM.
`COc1ncc2ncnc(Nc3cc(C(=O)Nc4cc(C(C)(C)C)on4)ccc3C)c2n1` [III-577] had an IC50 of 2 nM.
Compound `COc1c(NC(=O)c2ccc(C)c(Nc3ncnc4cnc(N5CCCN(C)CC5)nc34)c2)cc(C(C)(C)C)cc1NS(C)(=O)=O` [III-181] displayed an IC50 of 17 nM.
The figure for `COc1c(CNC(C)C)cc(C(F)(F)F)cc1NC(=O)c1ccc(C)c(Nc2ncnc3cnc(N4CC[C@H](F)C4)nc23)c1` [III-542] is 12 nM; for `Cc1ccc(C(=O)Nc2cccc(OC(F)(F)F)c2)cc1Nc1ncnc2cnc(N3CC[C@H](F)C3)nc12` [III-290] it is 1 nM.
The result for `COCCN1CCN(c2ncc3ncnc(Nc4cc(C(=O)Nc5cc(N6CCN(C)CC6)c(F)c(C(F)(F)F)c5)ccc4C)c3n2)CC1` [III-501] reads 25 nM; that for `Cc1ccc(C(=O)NCc2ccc(C(F)(F)F)cc2)cc1Nc1ncnc2cnc(N3CCCN(C)CC3)nc12` [III-221], 171 nM.
The figure for `COc1ccc(NC(=O)c2ccc(C)c(Nc3ncnc4cnc(N5CCN(CCN6CCOCC6)CC5)nc34)c2)cc1C(F)(F)F` [III-552] is 17 nM; for `Cc1ccc(C(=O)Nc2ccc(C(F)(F)F)cc2)cc1Nc1ncnc2c(N)nc(N3CCN(CC4CCN(C)CC4)CC3)nc12` [I-8] it is 2 nM; for `Cc1ccc(C(=O)Nc2ccccc2)cc1Nc1ncnc2cnc(N3CCCN(C)CC3)nc12` [III-184] it is 2880 nM.
Take `CN1CCCN(c2ncc3ncnc(Nc4cc(C(=O)Nc5cc(C(C)(C)C)on5)ccc4F)c3n2)CC1` [III-86]: the IC50 is < 1 nM.
The figure for `Cc1ccc(NC(=O)c2cccc(C(C)(C)C#N)c2)cc1Nc1ncnc2cnc(N3CC[C@H](F)C3)nc12` [IV-35] is 2 nM; for `Cc1cn(-c2cc(NC(=O)c3ccc(C)c(Nc4ncnc5cnc(NC6CCOC6)nc45)c3)cc(C(F)(F)F)c2)cn1` (centres unmarked) [III-507] it is 1 nM; for `CC(C)(C)c1cc(NC(=O)c2ccc(C(F)(F)F)c(Nc3ncnc4cnc(N5CCCCC5)nc34)c2)no1` [III-61] it is 2240 nM.
The result for `Cc1ccc(C(=O)Nc2cc(N3CCOCC3)cc(C(F)(F)F)c2)cc1Nc1ncnc2cnc(N3CCOCC3)nc12` [III-525] reads 3 nM; that for `CC(C)(C)c1cc(NC(=O)c2ccc(C(F)(F)F)c(Nc3ncnc4cnc(N5CCCC5)nc34)c2)no1` [III-64], > 1000 nM; that for `Cc1ccc(C(=O)NCc2cccc(C(F)(F)F)c2)cc1Nc1ncnc2cnc(N(C)CCN(C)C)nc12` [III-200], 971 nM.
With `Cc1ccc(NC(=O)c2cccc(C(C)(C)C#N)c2)cc1Nc1ncnc2cnc(N(C)C3CCOCC3)nc12` [IV-31], the IC50 was determined as 5 nM.
The result for `Cc1ccc(NC(=O)c2cccc(C(C)(C)C#N)c2)cc1Nc1ncnc2cnc(N3CCN(C4CC4)CC3)nc12` [IV-26] reads 2 nM.
The result for `Cc1ccc(C(=O)Nc2cc(C(C)(C)C)on2)cc1Nc1ncnc2cnc(NC3CC(N4CCN(C)CC4)C3)nc12` (centres unmarked) [III-592] reads < 1 nM.
With `Cc1ccc(C(=O)Nc2ccc(F)c(C(F)(F)F)c2)cc1Nc1ncnc2cnc(N3CC[C@H](F)C3)nc12` [III-286], the IC50 is 3 nM.
The result for `Cc1ccc(C(=O)Nc2cc(C(C)(C)C)nn2C)cc1Nc1ncnc2cnc(NCc3ccccc3)nc12` [III-429] reads 2 nM.
`COC[C@@H]1CCCN1c1ncc2ncnc(Nc3cc(C(=O)Nc4cc(C(C)(C)C)on4)ccc3C)c2n1` [III-362]: the IC50 is 3 nM.
The result for `COc1ccc(NC(=O)c2ccc(Cl)c(Nc3ncnc4cnc(N(C)C)nc34)c2)cc1C(F)(F)F` [III-16] reads 2 nM; that for `CCN1CCN(c2ncc3ncnc(Nc4cc(C(=O)Nc5cc(C(C)(C)C)on5)ccc4F)c3n2)CC1` [III-398], 1 nM.
The figure for `Cc1ccc(C(=O)Nc2cccc(C(F)(F)F)c2)cc1Nc1ncnc2c(N)nc(N3CCCN(c4ncccn4)CC3)nc12` [I-63] is 1 nM; for `COc1ccc(C(F)(F)F)cc1NC(=O)c1ccc(C)c(Nc2ncnc3cnc(N4CCOCC4)nc23)c1` [III-304] it is < 1 nM; for `Cc1ccc(C(=O)Nc2ccc(F)c(C(F)(F)F)c2)cc1Nc1ncnc2cnc(N3CCCCC3)nc12` [III-329] it is 17 nM.
The figure for `Cc1ccc(C(=O)NCc2ccc(C(C)(C)C)cc2)cc1Nc1ncnc2cnc(N3CCN(C)CC3)nc12` [III-226] is 101 nM; for `Cc1ccc(NC(=O)c2cccc(C(F)(F)F)c2)cc1Nc1ncnc2c(N)nc(N3CCN(C4CCN(C)CC4)CC3)nc12` [II-8] it is 2 nM.
On to `COc1ccc(C(F)(F)F)cc1NC(=O)c1ccc(C)c(Nc2ncnc3cnc(N4CCN(CC5CCN(C)CC5)CC4)nc23)c1` [III-413], for which the IC50 was < 1 nM.
The result for `Cc1ccc(NC(=O)c2cccc(C(C)(C)C#N)c2)cc1Nc1ncnc2cnc(NC3CCOCC3)nc12` [IV-38] reads 2 nM; that for `COc1ccc(C(F)(F)F)cc1NC(=O)c1ccc(C)c(Nc2ncnc3cnc(N4CCCN(C)CC4)nc23)c1` [III-219], 8 nM; that for `Cc1ccc(NC(=O)c2cccc(C(F)(F)F)c2)cc1Nc1ncnc2c(N)nc(N3CCN(CC4CCN(C)CC4)CC3)nc12` [II-14], 4 nM.
The figure for `COc1ccc(NC(=O)c2ccc(C)c(Nc3ncnc4cnc(N5CCC(N6CCOCC6)CC5)nc34)c2)cc1C(F)(F)F` [III-558] is 23 nM; for `Cc1ccc(C(=O)Nc2cccc(N(C)C)c2)cc1Nc1ncnc2cnc(N3CCOCC3)nc12` [III-309] it is 4 nM; for `Cc1ccc(NC(=O)c2cccc(C(C)(C)C#N)c2)cc1Nc1ncnc2cnc(N(C)C3CCN(C)CC3)nc12` [IV-29] it is 1 nM.
The figure for `COc1c(CN2CCCC2)cc(C(F)(F)F)cc1NC(=O)c1ccc(C)c(Nc2ncnc3cnc(N4CCOCC4)nc23)c1` [III-539] is 2 nM.
`Cc1ccc(C(=O)NCc2ccc(C(F)(F)F)cc2)cc1Nc1ncnc2cnc(N3CCCC3)nc12` [III-250] showed an IC50 of 40 nM.
The result for `COc1ncc2ncnc(Nc3cc(NC(=O)c4cccc(C(C)(C)C#N)c4)ccc3C)c2n1` [IV-40] reads 2 nM; that for `Cc1ccc(NS(=O)(=O)CCC(F)(F)F)cc1Nc1ncnc2cnc(N3CCN(C)CC3)nc12` [IV-59], 2000 nM.
As to `Cc1ccc(C(=O)Nc2cccc(OC(F)(F)F)c2)cc1Nc1ncnc2cnc(N3CCCN(C)CC3)nc12` [III-222], the IC50 was < 1 nM.
The figure for `Cc1ccc(C(=O)Nc2nnc(C(F)(F)F)s2)cc1Nc1ncnc2cnc(N3CCCCC3)nc12` [III-328] is 442 nM.
The figure for `COc1ccc(C(=O)Nc2cc(C(C)(C)C)on2)cc1Nc1ncnc2cnc(N3CCCCCC3)nc12` [III-87] is 3 nM; for `Cc1ccc(C(=O)Nc2cc(C(F)(F)F)ccn2)cc1Nc1ncnc2cnc(NCc3ccccc3)nc12` [III-522] it is 3 nM; for `Cc1ccc(C(=O)Nc2cccc(C(C)(C)C#N)c2)cc1Nc1ncnc2cnc(NCc3ccccc3)nc12` [III-430] it is 7 nM.
The figure for `Cc1ccc(C(=O)Nc2cc(C(C)(C)C)n[nH]2)cc1Nc1ncnc2cnc(N3CCN(CC4CCN(C)CC4)CC3)nc12` [III-418] is 2 nM.
